Measurements published in PubChem BioAssay (NCI).
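Five concentrations, 48 hours, 96-well plates. TGI denotes the concentration required for complete inhibition of growth.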

Key:
Test in all cases: growth of human tumour cells (NCI), 48 h
[1] = tested on: OVCAR-4 ovarian
[2] = tested on: SK-MEL-2 melanoma
[3] = tested on: CAKI-1 renal
[4] = tested on: MDA-MB-435
[5] = tested on: SW-620 colon
[6] = tested on: SNB-19 CNS
[7] = tested on: HCT-116 colon
[8] = tested on: SK-MEL-5 melanoma
[9] = tested on: RXF 393 renal
[10] = tested on: HCC-2998 colon
[11] = tested on: BT-549 breast
[12] = tested on: SK-OV-3 ovarian
[13] = tested on: NCI/ADR-RES ovarian
[14] = tested on: NCI-H460 lung
[15] = tested on: HT29 colon
[16] = tested on: 786-0 renal
[17] = tested on: LOX IMVI melanoma
[18] = tested on: COLO 205 colon
[19] = tested on: SR leukemia
[20] = tested on: TK-10 renal
[21] = tested on: OVCAR-5 ovarian
[22] = tested on: HCT-15 colon
[23] = tested on: SF-295 CNS
[24] = tested on: SF-268 CNS
[25] = tested on: UACC-257 melanoma
[26] = tested on: RPMI-8226 leukemia
[27] = tested on: SN12C renal
[28] = tested on: SK-MEL-28 melanoma
[29] = tested on: M14 melanoma
[30] = tested on: KM12 colon
[31] = tested on: SF-539 CNS
[32] = tested on: K-562 leukemia
[33] = tested on: MDA-MB-231 breast
[34] = tested on: EKVX NSCLC
[35] = tested on: MALME-3M melanoma
[36] = tested on: MCF7 breast
[37] = tested on: NCI-H23 lung
[38] = tested on: NCI-H522 lung
[39] = tested on: A549 NSCLC
[40] = tested on: DU-145 prostate
[41] = tested on: UACC-62 melanoma
[42] = tested on: T-47D breast
[43] = tested on: IGROV1 ovarian
[44] = tested on: ACHN renal
[45] = tested on: OVCAR-8 ovarian
[46] = tested on: HOP-92 NSCLC
[47] = tested on: HS 578T breast
[48] = tested on: A498 renal
[49] = tested on: HOP-62 NSCLC
[50] = tested on: OVCAR-3 ovarian
[51] = tested on: U251 CNS
[52] = tested on: MOLT-4 leukemia
[53] = tested on: CCRF-CEM leukemia
[54] = tested on: PC-3 prostate
[55] = tested on: NCI-H226 lung
[56] = tested on: UO-31 renal
[57] = tested on: HL-60(TB) leukemia
[58] = tested on: MDA-N
[59] = tested on: SNB-75 CNS

Measured: TGI

COc1ccc(CNc2ccn(C3OC(CO)C(O)C3O)c(=O)n2)cc1 (centres undefined)
83.3 µM: [57]
94.7 µM: [42]
> 100 µM: [1] | [2] | [3] | [4] | [5] | [6] | [7] | [8] | [9] | [10] | [11] | [12] | [13] | [14] | [15] | [16] | [17] | [18] | [19] | [20] | [21] | [22] | [23] | [24] | [25] | [26] | [27] | [28] | [29] | [30] | [31] | [32] | [33] | [34] | [35] | [36] | [37] | [38] | [39] | [40] | [41] | [43] | [44] | [45] | [46] | [47] | [48] | [49] | [50] | [51] | [52] | [53] | [54] | [55] | [56] | [58]

CC(=O)OCC1OC(NC(=S)Nn2c(=O)[nH]c3ccccc3c2=O)C(OC(C)=O)C(OC(C)=O)C1OC(C)=O (centres undefined)
> 100 µM: [2] | [3] | [4] | [5] | [6] | [7] | [8] | [9] | [10] | [11] | [12] | [13] | [14] | [15] | [16] | [17] | [18] | [19] | [21] | [22] | [23] | [24] | [25] | [26] | [27] | [28] | [59] | [29] | [30] | [31] | [33] | [34] | [35] | [36] | [37] | [38] | [39] | [40] | [41] | [42] | [43] | [44] | [45] | [46] | [47] | [48] | [49] | [50] | [51] | [52] | [53] | [54] | [55] | [56] | [57] | [58]
